Tested on: 695427-040-R-J1-PDC complex spheroid viability
Experiment: Anticancer human tumor 695427-040-R-J1-PDC patient-derived colon adenocarcinoma cell line growth inhibition [POLQ]
Conditions: for IC50: curve of first compound; for viability, T/C: stronger effect = lower value
Outline: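 Three-cell-type spheroids modelling solid tumor plus stroma served as the readout system; POL inhibitors were tested individually and in combination, concentration ranges set by clinical Cmax where known.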
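Note: spheroids exposed to compounds for seven days.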
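Throughout, for viability, T/C: 100% = DMSO vehicle control viability.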

Work on `CC(=O)O[C@H]1C(=O)[C@@]2(C)[C@H]([C@H](OC(=O)c3ccccc3)[C@]3(O)C[C@H](OC(=O)[C@H](O)[C@@H](NC(=O)c4ccccc4)c4ccccc4)C(C)=C1C3(C)C)[C@]1(OC(C)=O)CO[C@@H]1C[C@@H]2O` + Cc1cccc(N(C)C(=O)C2C(O)CCN2c2nc(C)cc(C(F)(F)F)c2C#N)c1 yielded an IC50 (second compound 0.0316 µM) of over 3 µM, an IC50 (second compound 0.1 µM) of over 3 µM and an IC50 (second compound 0.316 µM) of over 3 µM. The IC50 (second compound 1 µM) was over 3 µM, the IC50 (second compound 3.16 µM) was over 3 µM and the IC50 (second compound 10 µM) was over 3 µM. The viability, T/C (second compound 0.0316 µM, first compound 0.00949 µM) was 96.5%, the viability, T/C (second compound 0.0316 µM, first compound 0.03 µM) was 102% and the viability, T/C (second compound 0.0316 µM, first compound 0.0949 µM) was 96.3%. For the same compound, the viability, T/C (second compound 0.0316 µM, first compound 0.3 µM) was 98.9%, the viability, T/C (second compound 0.0316 µM, first compound 0.949 µM) was 94.7% and the viability, T/C (second compound 0.0316 µM, first compound 3 µM) was 77.9%. It also gave a viability, T/C (second compound 0.1 µM, first compound 0.00949 µM) of 112%, a viability, T/C (second compound 0.1 µM, first compound 0.03 µM) of 106% and a viability, T/C (second compound 0.1 µM, first compound 0.0949 µM) of 91.8%. It also gave a viability, T/C (second compound 0.1 µM, first compound 0.3 µM) of 95.3%, a viability, T/C (second compound 0.1 µM, first compound 0.949 µM) of 98.3% and a viability, T/C (second compound 0.1 µM, first compound 3 µM) of 79.7%. The viability, T/C (second compound 0.316 µM, first compound 0.00949 µM) was 111%, the viability, T/C (second compound 0.316 µM, first compound 0.03 µM) was 94.8% and the viability, T/C (second compound 0.316 µM, first compound 0.0949 µM) was 95%. The viability, T/C (second compound 0.316 µM, first compound 0.3 µM) was 89.5%, the viability, T/C (second compound 0.316 µM, first compound 0.949 µM) was 104% and the viability, T/C (second compound 0.316 µM, first compound 3 µM) was 78.7%. It also gave a viability, T/C (second compound 1 µM, first compound 0.00949 µM) of 102%, a viability, T/C (second compound 1 µM, first compound 0.03 µM) of 93.3% and a viability, T/C (second compound 1 µM, first compound 0.0949 µM) of 91.9%. For the same compound, the viability, T/C (second compound 1 µM, first compound 0.3 µM) was 98.3%, the viability, T/C (second compound 1 µM, first compound 0.949 µM) was 101% and the viability, T/C (second compound 1 µM, first compound 3 µM) was 73.1%. The viability, T/C (second compound 3.16 µM, first compound 0.00949 µM) was 97.4%, the viability, T/C (second compound 3.16 µM, first compound 0.03 µM) was 94.2% and the viability, T/C (second compound 3.16 µM, first compound 0.0949 µM) was 91.8%. The viability, T/C (second compound 3.16 µM, first compound 0.3 µM) was 88.8%, the viability, T/C (second compound 3.16 µM, first compound 0.949 µM) was 97% and the viability, T/C (second compound 3.16 µM, first compound 3 µM) was 80.6%. The viability, T/C (second compound 10 µM, first compound 0.00949 µM) was 91.3%, the viability, T/C (second compound 10 µM, first compound 0.03 µM) was 83.9% and the viability, T/C (second compound 10 µM, first compound 0.0949 µM) was 87.9%. The viability, T/C (second compound 10 µM, first compound 0.3 µM) was 85.1%, the viability, T/C (second compound 10 µM, first compound 0.949 µM) was 94.8% and the viability, T/C (second compound 10 µM, first compound 3 µM) was 84.2%.
`CNCc1ccc(-c2[nH]c3cc(F)cc4c3c2CCNC4=O)cc1` + COC1C(OC(N)=O)C(O)C(Oc2ccc3c(O)c(NC(=O)c4ccc(O)c(CC=C(C)C)c4)c(=O)oc3c2C)OC1(C)C was tested, and the IC50 (second compound 0.0316 µM) was over 10 µM, the IC50 (second compound 0.1 µM) was over 10 µM and the IC50 (second compound 0.316 µM) was over 10 µM. The IC50 (second compound 1 µM) was over 10 µM, the IC50 (second compound 3.16 µM) was over 10 µM and the IC50 (second compound 10 µM) was over 10 µM. For the same compound, the viability, T/C (second compound 0.0316 µM, first compound 0.0316 µM) was 94.5%, the viability, T/C (second compound 0.0316 µM, first compound 0.1 µM) was 96.1% and the viability, T/C (second compound 0.0316 µM, first compound 0.316 µM) was 108%. For the same compound, the viability, T/C (second compound 0.0316 µM, first compound 1 µM) was 99.7%, the viability, T/C (second compound 0.0316 µM, first compound 3.16 µM) was 112% and the viability, T/C (second compound 0.0316 µM, first compound 10 µM) was 103%. For the same compound, the viability, T/C (second compound 0.1 µM, first compound 0.0316 µM) was 108%, the viability, T/C (second compound 0.1 µM, first compound 0.1 µM) was 95.1% and the viability, T/C (second compound 0.1 µM, first compound 0.316 µM) was 107%. For the same compound, the viability, T/C (second compound 0.1 µM, first compound 1 µM) was 103%, the viability, T/C (second compound 0.1 µM, first compound 3.16 µM) was 112% and the viability, T/C (second compound 0.1 µM, first compound 10 µM) was 111%. It also gave a viability, T/C (second compound 0.316 µM, first compound 0.0316 µM) of 101%, a viability, T/C (second compound 0.316 µM, first compound 0.1 µM) of 99.8% and a viability, T/C (second compound 0.316 µM, first compound 0.316 µM) of 94.5%. The viability, T/C (second compound 0.316 µM, first compound 1 µM) was 96.8%, the viability, T/C (second compound 0.316 µM, first compound 3.16 µM) was 115% and the viability, T/C (second compound 0.316 µM, first compound 10 µM) was 105%. The viability, T/C (second compound 1 µM, first compound 0.0316 µM) was 97.6%, the viability, T/C (second compound 1 µM, first compound 0.1 µM) was 95% and the viability, T/C (second compound 1 µM, first compound 0.316 µM) was 105%. The viability, T/C (second compound 1 µM, first compound 1 µM) was 103%, the viability, T/C (second compound 1 µM, first compound 3.16 µM) was 112% and the viability, T/C (second compound 1 µM, first compound 10 µM) was 115%. It also gave a viability, T/C (second compound 3.16 µM, first compound 0.0316 µM) of 101%, a viability, T/C (second compound 3.16 µM, first compound 0.1 µM) of 99.3% and a viability, T/C (second compound 3.16 µM, first compound 0.316 µM) of 108%. The viability, T/C (second compound 3.16 µM, first compound 1 µM) was 93.2%, the viability, T/C (second compound 3.16 µM, first compound 3.16 µM) was 117% and the viability, T/C (second compound 3.16 µM, first compound 10 µM) was 103%. For the same compound, the viability, T/C (second compound 10 µM, first compound 0.0316 µM) was 98.1%, the viability, T/C (second compound 10 µM, first compound 0.1 µM) was 91.8% and the viability, T/C (second compound 10 µM, first compound 0.316 µM) was 106%. For the same compound, the viability, T/C (second compound 10 µM, first compound 1 µM) was 109%, the viability, T/C (second compound 10 µM, first compound 3.16 µM) was 114% and the viability, T/C (second compound 10 µM, first compound 10 µM) was 113%.
